# From US11724992B2 (Novartis AG, priority 2017, dated 2023)
# Test system: IL-1β production in PMA-differentiated THP-1 cells
# Assay: IL-1β production in PMA-differentiated THP-1 cells stimulated with gramicidin (hTHP-1 assay, 2% fetal bovine serum; Procedures 1-3)
# Format: cell-based, human
# Details: hTHP-1 assay containing 2% fetal bovine serum; class symbols; read-out: hTHP-1 IC50 (Average IC50 of compounds in hTHP-1 assay)
# Procedure, shortened: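 Readout is HTRF of IL-1β in cell-free supernatant after 2 h gramicidin (5 μM) challenge. Cells: THP-1 differentiated with PMA 20 ng/ml for 16-18 h, plated 50,000/well in 2% FBS RPMI, exposed to compound 1 h beforehand at final 100–0.0017 μM, DMSO 0.37%.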
row,Structure (SMILES),IC50 [nM]
1,"CC(C)(O)c1cnc(S(N)(=O)=NC(=O)Nc2c3c(cc4c2CCO4)CCC3)s1 (single isomer, unassigned) [Example 347, (R) or (S)-5-(2-hydroxypropan-2-yl)-N′-((3,5,6,7-tetrahydro-2H-indeno[5,6-b]furan-4-yl)carbamoyl)thiazole-2-sulfonimidamide]",8 to 40
2,"CC(C)(O)c1cnc(S(N)(=O)=NC(=O)Nc2c3c(cc4c2CCO4)CCC3)s1 (single isomer, unassigned) [Example 348, (S) or (R)-5-(2-hydroxypropan-2-yl)-N′-((3,5,6,7-tetrahydro-2H-indeno[5,6-b]furan-4-yl)carbamoyl)thiazole-2-sulfonimidamide]",1000 to 5000
3,"CC(C)(O)c1cnc(S(N)(=O)=NC(=O)Nc2c3c(cc4c2OCC4)CCC3)s1 (single isomer, unassigned) [Example 349, (S) or (R)-5-(2-hydroxypropan-2-yl)-N′-((3,5,6,7-tetrahydro-2H-indeno[5,6-b]furan-8-yl)carbamoyl)thiazole-2-sulfonimidamide]",1000 to 5000
4,"CC(C)(O)c1cnc(S(N)(=O)=NC(=O)Nc2c3c(cc4c2OCC4)CCC3)s1 (single isomer, unassigned) [Example 350, (R) or (S)-5-(2-hydroxypropan-2-yl)-N′-((3,5,6,7-tetrahydro-2H-indeno[5,6-b]furan-8-yl)carbamoyl)thiazole-2-sulfonimidamide]",40 to 200
5,"CC(C)(O)c1csc(S(N)(=O)=NC(=O)Nc2c3c(cc4c2OCC4)CCC3)n1 (single isomer, unassigned) [Example 353, (S) or (R)-4-(2-hydroxypropan-2-yl)-N′-((3,5,6,7-tetrahydro-2H-indeno[5,6-b]furan-8-yl)carbamoyl)thiazole-2-sulfonimidamide]",1000 to 5000
6,"CC(C)(O)c1csc(S(N)(=O)=NC(=O)Nc2c3c(cc4c2OCC4)CCC3)n1 (single isomer, unassigned) [Example 354, (R) or (S)-4-(2-hydroxypropan-2-yl)-N′-((3,5,6,7-tetrahydro-2H-indeno[5,6-b]furan-8-yl)carbamoyl)thiazole-2-sulfonimidamide]",8 to 40
7,"CN(C)C(C)(C)c1ccc(S(N)(=O)=NC(=O)Nc2c3c(cc4c2CCC4)CCC3)cc1 (single isomer, unassigned) [Example 361, (R) or (S)-4-(2-(dimethylamino)propan-2-yl)-N′-((1,2,3,5,6,7-hexahydro-s-indacen-4-yl)carbamoyl)benzenesulfonimidamide]",40 to 200
8,"CN(C)C(C)(C)c1ccc(S(N)(=O)=NC(=O)Nc2c3c(cc4c2CCC4)CCC3)cc1 (single isomer, unassigned) [Example 362, (S) or (R)-4-(2-(dimethylamino)propan-2-yl)-N′-((1,2,3,5,6,7-hexahydro-s-indacen-4-yl)carbamoyl)benzenesulfonimidamide]",1000 to 5000
9,"CC(c1ccc(S(N)(=O)=NC(=O)Nc2c3c(cc4c2CCC4)CCC3)cc1)N(C)C (single isomer, unassigned) [Example 371, (S) or (R)-4-(1-(dimethylamino)ethyl)-N′-((1,2,3,5,6,7-hexahydro-s-indacen-4-yl)carbamoyl)benzenesulfonimidamide]",5000 to 30000
10,"CC(c1ccc(S(N)(=O)=NC(=O)Nc2c3c(cc4c2CCC4)CCC3)cc1)N(C)C (single isomer, unassigned) [Example 372, (R) or (S)-4-(1-(dimethylamino)ethyl)-N′-((1,2,3,5,6,7-hexahydro-s-indacen-4-yl)carbamoyl)benzenesulfonimidamide]",40 to 200

# The remaining lines, values ahead:
row,IC50 [nM],Structure (SMILES)
1,5000 to 30000,"Cc1nc(C(C)(C)O)ccc1S(N)(=O)=NC(=O)Nc1c2c(cc3c1CCC3)CCC2 (single isomer, unassigned) [Example 346, (R) or (S)-N′-((1,2,3,5,6,7-hexahydro-s-indacen-4-yl)carbamoyl)-6-(2-hydroxypropan-2-yl)-2-methylpyridine-3-sulfonimidamide]"
2,200 to 1000,"CC(C)(O)c1cnc(S(N)(=O)=NC(=O)Nc2c3c(c(Br)c4c2CCC4)CCC3)s1 (single isomer, unassigned) [Example 351, (S) or (R)-N′-((8-bromo-1,2,3,5,6,7-hexahydro-s-indacen-4-yl)carbamoyl)-5-(2-hydroxypropan-2-yl)thiazole-2-sulfonimidamide]"
3,40 to 200,"CC(C)(O)c1cnc(S(N)(=O)=NC(=O)Nc2c3c(c(Br)c4c2CCC4)CCC3)s1 (single isomer, unassigned) [Example 352, (R) or (S)-N′-((8-bromo-1,2,3,5,6,7-hexahydro-s-indacen-4-yl)carbamoyl)-5-(2-hydroxypropan-2-yl)thiazole-2-sulfonimidamide]"
4,< 8,"CC(C)(O)c1ncc(S(N)(=O)=NC(=O)Nc2c3c(cc4c2CC4)CC3)s1 (single isomer, unassigned) [Example 355, (R) or (S)-2-(2-hydroxypropan-2-yl)-N′-(tricyclo[6.2.0.03,6]deca-1,3(6),7-trien-2-ylcarbamoyl)thiazole-5-sulfonimidamide]"
5,200 to 1000,"CC(C)(O)c1ncc(S(N)(=O)=NC(=O)Nc2c3c(cc4c2CC4)CC3)s1 (single isomer, unassigned) [Example 356, (S) or (R)-2-(2-hydroxypropan-2-yl)-N′-(tricyclo[6.2.0.03,6]deca-1,3(6),7-trien-2-ylcarbamoyl)thiazole-5-sulfonimidamide]"
6,8 to 40,"Cc1sc(S(N)(=O)=NC(=O)Nc2c3c(cc4c2CCC4)CCC3)nc1C(C)(C)O (single isomer, unassigned) [Example 359, (R) or (S)-N′-((1,2,3,5,6,7-hexahydro-s-indacen-4-yl)carbamoyl)-4-(2-hydroxypropan-2-yl)-5-methylthiazole-2-sulfonimidamide]"
7,200 to 1000,"Cc1sc(S(N)(=O)=NC(=O)Nc2c3c(cc4c2CCC4)CCC3)nc1C(C)(C)O (single isomer, unassigned) [Example 360, (S) or (R)-N′-((1,2,3,5,6,7-hexahydro-s-indacen-4-yl)carbamoyl)-4-(2-hydroxypropan-2-yl)-5-methylthiazole-2-sulfonimidamide]"
8,1000 to 5000,"CC(C)(O)c1ncc(S(N)(=O)=NC(=O)Nc2c3c(cc4c2C(=O)CC4)CCC3)s1 (single isomer, unassigned) [Example 363, (S) or (R)-2-(2-Hydroxypropan-2-yl)-N′-((3-oxo-1,2,3,5,6,7-hexahydro-s-indacen-4-yl)carbamoyl)thiazole-5-sulfonimidamide]"
9,40 to 200,"CC(C)(O)c1ncc(S(N)(=O)=NC(=O)Nc2c3c(cc4c2C(=O)CC4)CCC3)s1 (single isomer, unassigned) [Example 364, (R) or (S)-2-(2-Hydroxypropan-2-yl)-N′-((3-oxo-1,2,3,5,6,7-hexahydro-s-indacen-4-yl)carbamoyl)thiazole-5-sulfonimidamide]"
10,5000 to 30000,"CNS(=O)(=NC(=O)Nc1c2c(cc3c1CCC3)CCC2)c1cnc(C(C)(C)O)s1 (single isomer, unassigned) [Example 373, (R) or (S)-N′-((1,2,3,5,6,7-hexahydro-s-indacen-4-yl)carbamoyl)-2-(2-hydroxypropan-2-yl)-N-methylthiazole-5-sulfonimidamide]"
